Results reported in patent US9133207B2, “Tetrandrine derivatives with substituted 5-carbon, preparation method and use thereof” (Hangzhou Bensheng Pharmaceutical Co., Ltd., priority 2011, dated 2015).
Converted amounts (≈) assume the structure as drawn.

Columns and labels:
[1] = tested on: MGC 803 (human gastric cancer cell); assay: Solid tumor cell growth inhibition, MTT, 72 h (Example 7); format: cell-based; details: Homo sapiens
Procedure: (§1) Human solid tumor cell lines: Hep-2 (laryngeal carcinoma), A549 (human lung cancer), CaES-17 (esophageal cancer cell), PC-3 (prostate cancer), CNE (nasopharyngeal carcinoma cell) and SK-OV-3 (ovarian cancer cell), all of which are purchased from China Center For Type Culture Collection; RKO (human colon adenocarcinoma cell), MGC 803 (human gastric cancer cell), MG63 (osteosarcoma), and U87 MG (malignant glioma cell), all of which are purchased from Fuxiang Bio-tech Co. Ltd., Shanghai, China; PANC-1 (pancreatic cancer), Huh? (human liver cancer cell), Becap37 (human breast cancer cell), and Hela (human cervical cancer cell), all of which are donated by Cancer Research Institute of Zhejiang University, China.
(§2) Reagents: the same as in Example 5.
(§3) Obtaining 4000 well-growing human solid tumor cells and inoculating them into wells of a 96-well cell culture plate. The culture medium is DMEM High Glucose cell culture medium containing 10% fetal bovine serum. The plate is placed in a carbon dioxide cell incubator (5% CO2) at 37° C. and incubated for 24 hours. After been added with tetrandrine derivatives of different concentration and mixing uniformly, the plate is placed in a carbon dioxide cell incubator (5% CO2) at 37° C. and incubated for 72 hours. Then the viable cell concentration is determined by the MTT method and the cell viability (%) after drug treatment is calculated. In this experiment, the cell viability of control group (not treated with any compound) is set as 100%.

[2] = tested on: A549 (human lung cancer); assay: as above; format: cell-based; details: for IC50 / IC90: Homo sapiens, 72 h, MTT, A549
Procedure: as §1, §2, §3

[3] = tested on: Huh7 (human liver cancer cell); assay: as above; format: cell-based; details: Homo sapiens; 72 h, MTT, Huh-7
Procedure: as §1, §2, §3

[4] = tested on: RKO (human colon adenocarcinoma cell); assay: as above; format: cell-based; details: Homo sapiens; 72 h, MTT, RKO
Procedure: as §1, §2, §3

[5] = tested on: Becap37 (human breast cancer cell); assay: as above; format: cell-based; details: Homo sapiens; 72 h, MTT, Becap-37
Procedure: as §1, §2, §3

[6] = tested on: PC-3 (prostate cancer); assay: as above; format: cell-based, human; details: for IC50 / IC90: Homo sapiens, 72 h, MTT, PC-3
Procedure: as §1, §2, §3

[7] = tested on: MG63 (osteosarcoma); assay: as above; format: cell-based, human; details: Homo sapiens; 72 h, MTT, MG-63
Procedure: as §1, §2, §3

[8] = tested on: CaES-17 (esophageal cancer cell); assay: as above; format: cell-based, human; details: Homo sapiens, CaEs17; 72 h, MTT, CAES-17
Procedure: as §1, §2, §3

[9] = tested on: PANC-1 (pancreatic cancer); assay: as above; format: cell-based, human; details: Homo sapiens; 72 h, MTT, PANC-1
Procedure: as §1, §2, §3

[10] = tested on: Kasumi-1 (acute myeloid leukemia M2 type, AML-M2); assay: Leukemia cell growth inhibition, MTT, 72 h (Example 5); format: cell-based, human; details: Homo sapiens, Kasumi 1
Excerpt: (§4) Leukemia cell lines: leukemia cell lines: K562/adr (drug-resistant, chronic myeloid leukemia, CML), NB4 (acute promyelocytic leukemia, AML), Kasumi-1 (acute myeloid leukemia M2 type, AML-M2), Jurkat (acute lymphoblastic leukemia, ALL), all of which are donated by Cancer Research Institute of Zhejiang University, China; and H9 (acute lymphoblastic leukemia, ALL), which is purchased from China Center for Type Culture Collection.
(§5) Reagents: The standard sample of tetrandrine (TTD) is purchased from Ci Yuan Biotechnology Co., Ltd., Shaanxi, China; and the 5-substituted tetrandrine derivatives of the present invention.
(§6) Obtaining 6000 well-growing leukemia cells and inoculating them into wells of a 96-well cell culture plate. The culture medium is a 1640 cell culture medium containing 10% fetal bovine serum. After adding the tetrandrine derivatives of different concentrations and mixing uniformly, placing the plate in a carbon dioxide cell incubator (5% CO2) at 37° C. and incubating for 72 hours. Then the viable cell concentration is determined by the MTT method.

[11] = tested on: H9 (acute lymphoblastic leukemia, ALL); assay: as above; format: cell-based, human; details: Homo sapiens; 72 h, MTT
Excerpt: as §4, §5, §6

[12] = tested on: Jurkat (acute lymphoblastic leukemia, ALL); assay: as above; format: cell-based, human; details: Homo sapiens, Jurkat; 72 h, MTT
Excerpt: as §4, §5, §6

[13] = tested on: K562/adr (drug-resistant, chronic myeloid leukemia, CML); assay: as above; format: cell-based, human; details: Homo sapiens, K562/Adr; 72 h, MTT
Excerpt: as §4, §5, §6

[14] = tested on: RPMI8226 (multiple myeloma); assay: Multiple myeloma cell growth inhibition, MTT, 72 h (Example 6); format: cell-based, human; details: Homo sapiens, RPMI-8226; 72 h, MTT, RPMI8226
Procedure: Multiple myeloma and lymphoma cell lines: RPMI8226 (multiple myeloma), purchased from Fuxiang Bio-tech Co. Ltd., Shanghai, China.
as §2
as §6, with “incubated” for “incubating”

[15] = tested on: NB4 (acute promyelocytic leukemia, AML); assay: Leukemia cell growth inhibition, MTT, 72 h (Example 5); format: cell-based, human; details: Homo sapiens; 72 h, MTT
Excerpt: as §4, §5, §6

COc1ccc2cc1Oc1ccc(cc1)C[C@H]1c3cc(c(OC)cc3CCN1C)Oc1c(OC)c(OC)c(COC(=O)c3ccc(N(C)C)cc3)c3c1[C@H](C2)N(C)CC3 [BS-TE-204]
IC50 [1]: 2.57 µg/mL (≈ 3.21 µM)
IC90 [1]: 9 µg/mL (≈ 11.3 µM)
IC50 [2]: 3.12 µg/mL (≈ 3.9 µM)
IC90 [2]: 14.2 µg/mL (≈ 17.7 µM)
IC50 [3]: 2.08 µg/mL (≈ 2.6 µM)
IC90 [3]: 3.88 µg/mL (≈ 4.85 µM)
IC50 [4]: 3.12 µg/mL (≈ 3.9 µM)
IC90 [4]: 4.7 µg/mL (≈ 5.88 µM)
IC50 [5]: 3.66 µg/mL (≈ 4.58 µM)
IC90 [5]: 6.19 µg/mL (≈ 7.74 µM)
IC50 [6]: 6.55 µg/mL (≈ 8.19 µM)
IC90 [6]: 9 µg/mL (≈ 11.3 µM)
IC50 [7]: 1.72 µg/mL (≈ 2.15 µM)
IC90 [7]: 4.69 µg/mL (≈ 5.86 µM)
IC50 [8]: 6.81 µg/mL (≈ 8.51 µM)
IC90 [8]: 16.6 µg/mL (≈ 20.8 µM)
IC50 [9]: 6.47 µg/mL (≈ 8.09 µM)
IC90 [9]: 11.1 µg/mL (≈ 13.9 µM)
IC50 [10]: 2.32 µg/mL (≈ 2.9 µM)
IC90 [10]: 7.5 µg/mL (≈ 9.38 µM)
IC50 [11]: 2.88 µg/mL (≈ 3.6 µM)
IC90 [11]: 5.84 µg/mL (≈ 7.3 µM)
IC50 [12]: 2.66 µg/mL (≈ 3.33 µM)
IC90 [12]: 9.06 µg/mL (≈ 11.3 µM)
IC50 [13]: 1.47 µg/mL (≈ 1.84 µM)
IC90 [13]: 14.5 µg/mL (≈ 18.1 µM)
IC50 [14]: 0.47 µg/mL (≈ 0.588 µM)
IC90 [14]: 1.92 µg/mL (≈ 2.4 µM)

COc1ccc2cc1Oc1ccc(cc1)C[C@H]1c3cc(c(OC)cc3CCN1C)Oc1c(OC)c(OC)c(COC(C)=O)c3c1[C@H](C2)N(C)CC3 [BS-TE-223]
IC50 [1]: 3.54 µg/mL (≈ 5.09 µM)
IC90 [1]: 38.1 µg/mL (≈ 54.8 µM)
IC50 [2]: 4.45 µg/mL (≈ 6.4 µM)
IC90 [2]: 14.2 µg/mL (≈ 20.4 µM)
IC50 [3]: 4.14 µg/mL (≈ 5.96 µM)
IC90 [3]: 7.97 µg/mL (≈ 11.5 µM)
IC50 [4]: 4.23 µg/mL (≈ 6.09 µM)
IC90 [4]: 7.5 µg/mL (≈ 10.8 µM)
IC50 [5]: 6.77 µg/mL (≈ 9.74 µM)
IC90 [5]: 15 µg/mL (≈ 21.6 µM)
IC50 [6]: 5.6 µg/mL (≈ 8.06 µM)
IC90 [6]: 28 µg/mL (≈ 40.3 µM)
IC50 [7]: 5.13 µg/mL (≈ 7.38 µM)
IC90 [7]: 7.64 µg/mL (≈ 11 µM)
IC50 [8]: 9.8 µg/mL (≈ 14.1 µM)
IC90 [8]: 37.5 µg/mL (≈ 54 µM)
IC50 [9]: 10.7 µg/mL (≈ 15.4 µM)
IC90 [9]: 16 µg/mL (≈ 23 µM)
IC50 [10]: 2 µg/mL (≈ 2.88 µM)
IC90 [10]: 8 µg/mL (≈ 11.5 µM)
IC50 [11]: 4.19 µg/mL (≈ 6.03 µM)
IC90 [11]: 8.89 µg/mL (≈ 12.8 µM)
IC50 [15]: 2.57 µg/mL (≈ 3.7 µM)
IC90 [15]: 7.42 µg/mL (≈ 10.7 µM)
IC50 [12]: 3.42 µg/mL (≈ 4.92 µM)
IC90 [12]: 11.3 µg/mL (≈ 16.2 µM)
IC50 [13]: 0.5 µg/mL (≈ 0.72 µM)
IC90 [13]: 9.91 µg/mL (≈ 14.3 µM)
IC50 [14]: 0.23 µg/mL (≈ 0.331 µM)
IC90 [14]: 2.29 µg/mL (≈ 3.3 µM)

COc1ccc2cc1Oc1ccc(cc1)C[C@H]1c3cc(c(OC)cc3CCN1C)Oc1c(OC)c(OC)c(CN3CCCC3)c3c1[C@H](C2)N(C)CC3 [BS-TE-305]
IC50 [1]: 1 µg/mL (≈ 1.42 µM)
IC90 [1]: 10 µg/mL (≈ 14.2 µM)
IC50 [2]: 1 µg/mL (≈ 1.42 µM)
IC90 [2]: 5.25 µg/mL (≈ 7.44 µM)
anti-A549 activity increase over tetrandrine ([2]; compared with tetrandrine): ~3 fold
IC50 [3]: 1.28 µg/mL (≈ 1.81 µM)
IC90 [3]: 2.3 µg/mL (≈ 3.26 µM)
IC50 [4]: 0.66 µg/mL (≈ 0.935 µM)
IC90 [4]: 1.65 µg/mL (≈ 2.34 µM)
IC50 [5]: 1.44 µg/mL (≈ 2.04 µM)
IC90 [5]: 6.24 µg/mL (≈ 8.84 µM)
IC50 [6]: 1.56 µg/mL (≈ 2.21 µM)
IC90 [6]: 4.9 µg/mL (≈ 6.94 µM)
anti-PC-3 activity increase over tetrandrine ([6]; compared with tetrandrine): ~4 fold
IC50 [7]: 0.74 µg/mL (≈ 1.05 µM)
IC90 [7]: 2.05 µg/mL (≈ 2.9 µM)
IC50 [8]: 1.1 µg/mL (≈ 1.56 µM)
IC90 [8]: 17 µg/mL (≈ 24 µM)
IC50 [9]: 3.72 µg/mL (≈ 5.27 µM)
IC90 [9]: 13.4 µg/mL (≈ 19 µM)
IC50 [10]: 0.52 µg/mL (≈ 0.737 µM)
IC90 [10]: 3.11 µg/mL (≈ 4.41 µM)
IC50 [11]: 0.7 µg/mL (≈ 0.992 µM)
IC90 [11]: 1.44 µg/mL (≈ 2.04 µM)
IC50 [15]: 0.29 µg/mL (≈ 0.411 µM)
IC90 [15]: 2 µg/mL (≈ 2.83 µM)
IC50 [12]: 1.35 µg/mL (≈ 1.91 µM)
IC90 [12]: 4.96 µg/mL (≈ 7.03 µM)
IC50 [13]: 0.44 µg/mL (≈ 0.623 µM)
IC90 [13]: 7.2 µg/mL (≈ 10.2 µM)
IC50 [14]: 0.006 µg/mL (≈ 0.0085 µM)
IC90 [14]: 0.42 µg/mL (≈ 0.595 µM)
